Experiment [1] concerns the target T1, DGKQ (Diacylglycerol kinase theta) (Homo sapiens, UniProt P52824).
T1 construct: expressed in transfected cells; host or cells: SILAC HEK293T
T1 sequence (P52824 1-942): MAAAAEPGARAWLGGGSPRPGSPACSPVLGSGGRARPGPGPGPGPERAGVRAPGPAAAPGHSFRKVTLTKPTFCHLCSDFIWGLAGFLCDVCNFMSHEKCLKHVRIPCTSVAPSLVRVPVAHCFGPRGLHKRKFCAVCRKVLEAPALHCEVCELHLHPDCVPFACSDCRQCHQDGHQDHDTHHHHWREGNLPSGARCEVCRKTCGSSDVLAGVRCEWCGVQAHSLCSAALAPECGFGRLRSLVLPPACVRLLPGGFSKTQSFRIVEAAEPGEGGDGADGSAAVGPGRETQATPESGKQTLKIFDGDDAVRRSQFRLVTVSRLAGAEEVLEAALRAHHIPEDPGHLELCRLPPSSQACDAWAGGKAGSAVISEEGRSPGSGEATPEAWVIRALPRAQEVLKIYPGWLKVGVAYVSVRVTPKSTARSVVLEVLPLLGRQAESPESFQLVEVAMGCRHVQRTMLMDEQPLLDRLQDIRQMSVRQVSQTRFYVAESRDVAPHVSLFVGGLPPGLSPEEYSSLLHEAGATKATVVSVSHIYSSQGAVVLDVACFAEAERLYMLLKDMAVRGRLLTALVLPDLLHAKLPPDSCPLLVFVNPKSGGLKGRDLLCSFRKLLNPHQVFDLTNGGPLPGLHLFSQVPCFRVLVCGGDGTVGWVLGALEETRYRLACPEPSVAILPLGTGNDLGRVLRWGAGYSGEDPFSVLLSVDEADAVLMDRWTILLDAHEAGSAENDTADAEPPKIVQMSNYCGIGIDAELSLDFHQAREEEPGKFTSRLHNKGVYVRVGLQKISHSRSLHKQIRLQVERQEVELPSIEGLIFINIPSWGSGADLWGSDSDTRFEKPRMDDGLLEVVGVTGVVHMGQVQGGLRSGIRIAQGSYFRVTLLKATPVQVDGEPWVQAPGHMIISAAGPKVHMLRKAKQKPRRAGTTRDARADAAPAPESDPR
Briefly: SILAC LC-MS ATP acyl phosphate probe competition, recombinant DGK-HEK293T lysates. It is filed as binding. Conditions: ATP 1 mM, Ketanserin, Ritanserin 100 μM, RF001 1 mM; for SILAC ratio, DGKQ C1 probe-modified peptide: site C1 (K202); for SILAC ratio, DGKQ DAGKa probe-modified peptide: site DAGKa (K768); for SILAC ratio, DGKQ DAGKc probe-modified peptide: site DAGKc (K596). The text has this: (§1) Recombinant DGK proteins were produced by transient transfection of HEK293T cells with recombinant DNA. pDONR223-DGKK was a gift from William Hahn & David Root (Addgene plasmid #23487). pCSF107mT-GATEWAY-3′-FLAG was a gift from Todd Stukenberg (Addgene plasmid #67619). pCSF107mT-DGKK-FLAG construct was generated by recombination of the Addgene plasmids using the Gateway cloning system (Invitrogen). All other vectors were gifted to Dr. Kevin Lynch (University of Virginia, School of Medicine) by Dr. Kaoru Goto (Yamagata University, School of Medicine) and Dr. Fumio Sakane (Chiba University) and were kindly shared with us: pcDNA3-FLAG-DGKA (rat), pCMV-Tag2B-FLAG-DGKQ (human), pcDNA3-DGKE-3×Flag (human), and pCMV-SPORT6-HA-DGKZ (human). HEK293T cells were plated at a concentration of 400,000 cells in complete DMEM and grown to 50-60% confluency. A polyethyleneimine (PEI) stock solution was prepared (1 mg/mL, pH 7.4) and filter sterilized. Serum-free DMEM (600 μL) was mixed gently with 2.6 μg DNA and 20 μL of sterile PEI (1 mg/mL, pH 7.4) in a sterile microfuge tube. Mixtures were incubated for 30 min at 25° C. The mixture was then added drop-wise to each 10 cm^2 plate, rocked back and forth to mix, and placed back in the incubator. Cell pellets were harvested after two full days of growth, snap-frozen in liquid N2, and stored at −80° C. until use. Recombinant proteins were produced by transient transfection in SILAC HEK293T cells using the procedure described above, except that cells were plated at a concentration of 1×10^6 cells per 10 cm^2 plate and grown to ˜70% confluency prior to introducing transfection mixture.
(§2) Proteomes were diluted to 2 mg/ml in kinase buffer. The light and heavy proteomes (0.5 mg, 250 μL total reaction volume) were pre-treated with vehicle or compound, respectively (5 μL, DMSO (light) or 50× stock in DMSO (heavy)), mixed gently, and incubated at 25° C. for 30 min. […] After incubation, matched light and heavy proteomes were transferred and mixed in a 1:1 ratio in a two-dram vial containing 4:1:3 MeOH/CHCl3/H2O (2 mL MeOH, 500 AL CHCl3, 1.5 mL H2O) for extraction of proteins to remove excess probe, quickly vortexed, and centrifuged at 1,400×g for 3 min to pellet protein. Organic and aqueous layers were removed using a Pasteur pipette, and the protein pellet was transferred to a screw-top tube in 600 μL MeOH. A second extraction was performed by adding CHCl3 (150 μL) and H2O (600 μL) to each sample, vortexed, and centrifuged at 1,400×g for 3 min to pellet protein. Organic and aqueous layers were removed by pipetting. MeOH added to pellet (600 μL) and pellets were re-suspended by sonication (3×1 sec pulse, 20% amplitude) for a final extraction. Samples were then centrifuged at 17,000×g for 5 min to pellet protein and MeOH was removed by pipetting. The pellets were re-suspended in 10 M urea/25 mM ammonium bicarbonate ([…]), brought to a final volume of 1 mL with 25 mM ammonium bicarbonate, reduced with 10 mM DTT for 15 min at 65° C. allowed to cool, and then alkylated with 40 mM iodoacetamide for 30 min at 25° C. in the dark. To desalt the samples, each was transferred to a two-dram glass vial, and to the vial 4:1:2 MeOH/CHCl3/H2O (2 mL MeOH, 500 AL CHCl3, 1 mL H2O) was added. The vials were vortexed quickly, spun at 1.400×g for 3 min to pellet protein, and aqueous and organic layers were removed using a Pasteur pipette. The resulting protein pellet was transferred to a screw-top tube in 600 μL MeOH, and then CHCl3 (150 μL) and HO (600 μL) were added to extract protein a second time. The samples were vortexed quickly, centrifuged at 1,400×g to pellet protein, and the aqueous and organic layers were removed by pipetting. Resulting protein pellet was suspended in MeOH (600 μL) via sonication (3×1 sec pulse, 20% amplitude), centrifuged at 17,000×g for 5 min to pellet protein, and MeOH removed by pipetting. […]

Experiment [2] addresses T2, DGKZ (Diacylglycerol kinase zeta) (Homo sapiens, UniProt Q13574).
T2 construct: expressed in transfected cells; host or cells: SILAC HEK293T
The description is as above. It is filed as binding. Particulars: ATP 1 mM, Ketanserin, Ritanserin 100 μM, RF001 1 mM; for SILAC ratio, DGKZ C1 probe-modified peptide: site C1 (K323); for SILAC ratio, DGKZ DAGKa probe-modified peptide: site DAGKa (K662); for SILAC ratio, DGKZ DAGKc probe-modified peptide: site DAGKc (K500).
Source text: as §1, §2

T2 sequence (Q13574 whole entry): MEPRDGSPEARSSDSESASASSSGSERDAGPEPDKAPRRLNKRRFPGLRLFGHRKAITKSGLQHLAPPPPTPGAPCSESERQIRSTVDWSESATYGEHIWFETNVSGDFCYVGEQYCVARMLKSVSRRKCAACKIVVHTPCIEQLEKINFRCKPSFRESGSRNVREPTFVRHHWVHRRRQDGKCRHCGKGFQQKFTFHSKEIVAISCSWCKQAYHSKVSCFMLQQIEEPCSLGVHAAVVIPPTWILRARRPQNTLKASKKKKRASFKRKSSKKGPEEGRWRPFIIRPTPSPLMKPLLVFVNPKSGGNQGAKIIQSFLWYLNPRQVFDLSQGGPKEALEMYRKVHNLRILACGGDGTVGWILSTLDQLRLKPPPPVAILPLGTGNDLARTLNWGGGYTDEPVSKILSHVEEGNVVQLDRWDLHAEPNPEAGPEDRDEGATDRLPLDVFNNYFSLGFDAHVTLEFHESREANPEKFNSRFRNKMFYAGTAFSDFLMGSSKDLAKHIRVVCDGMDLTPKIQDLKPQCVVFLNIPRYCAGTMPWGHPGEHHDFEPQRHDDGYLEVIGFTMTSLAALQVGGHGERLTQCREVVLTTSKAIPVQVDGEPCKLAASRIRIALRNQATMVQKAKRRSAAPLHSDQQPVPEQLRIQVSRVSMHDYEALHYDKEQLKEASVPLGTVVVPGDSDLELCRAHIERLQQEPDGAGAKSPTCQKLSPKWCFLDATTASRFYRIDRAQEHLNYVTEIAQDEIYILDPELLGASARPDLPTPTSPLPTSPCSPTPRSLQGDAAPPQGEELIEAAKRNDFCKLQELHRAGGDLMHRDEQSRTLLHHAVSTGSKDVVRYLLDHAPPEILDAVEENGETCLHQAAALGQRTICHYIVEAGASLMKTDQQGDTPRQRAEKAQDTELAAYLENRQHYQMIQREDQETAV

Regarding `O=C(c1ccc(F)cc1)C1CCN(CCn2c(=O)[nH]c3ccccc3c2=O)CC1` [Ketanserin], in experiment [1], the “SILAC ratio, DGKQ C1 probe-modified peptide” value was determined as 0.9; the “SILAC ratio, DGKQ DAGKa probe-modified peptide” value turned out to be 1.1; the “SILAC ratio, DGKQ DAGKc probe-modified peptide” value amounted to 1.2. In addition, in experiment [2], the “SILAC ratio, DGKZ C1 probe-modified peptide” value is given as 1.3; the “SILAC ratio, DGKZ DAGKa probe-modified peptide” value was 1.4; the “SILAC ratio, DGKZ DAGKc probe-modified peptide” value stood at 1.5.
On to `Fc1ccc(C(=C2CCNCC2)c2ccc(F)cc2)cc1` [RF001, 4-(Bis(4-fluorophenyl)methylene) piperidine], for which, in experiment [1], the “SILAC ratio, DGKQ C1 probe-modified peptide” value is given as 0.7; the “SILAC ratio, DGKQ DAGKa probe-modified peptide” value was determined as 1.2; the “SILAC ratio, DGKQ DAGKc probe-modified peptide” value is on record as 0.9. Besides, in experiment [2], the “SILAC ratio, DGKZ C1 probe-modified peptide” value came out at 1.1; the “SILAC ratio, DGKZ DAGKa probe-modified peptide” value was 1.1; the “SILAC ratio, DGKZ DAGKc probe-modified peptide” value is 0.9.
On to `Cc1nc2sccn2c(=O)c1CCN1CCC(=C(c2ccc(F)cc2)c2ccc(F)cc2)CC1` [Ritanserin], for which, in experiment [1], the “SILAC ratio, DGKQ C1 probe-modified peptide” value turned out to be 1.3; the “SILAC ratio, DGKQ DAGKa probe-modified peptide” value is reported as 1.4; the “SILAC ratio, DGKQ DAGKc probe-modified peptide” value is 1.1. Moreover, in experiment [2], the “SILAC ratio, DGKZ C1 probe-modified peptide” value came to 1.4; the “SILAC ratio, DGKZ DAGKa probe-modified peptide” value was determined as 1.8; the “SILAC ratio, DGKZ DAGKc probe-modified peptide” value came to 1.2.

The values above are taken from patent US12643867B2, “Compositions and uses thereof” (University of Virginia Patent Foundation, priority 2017, dated 2026).
